Data from the kinase profiling compilation of Christmann-Franck et al. (2016).
Blank lines part the entries; values can stand above or below the compound they belong to.

Legend:
Experiment in all cases: radiometric filter-binding kinase assay, Kinase HotSpot
Details in all cases: compound 0.5 µM; ATP 10 µM
ACVR1B (human) = ACVR1B (human) (UniProt P36896)
ACVRL1 (human) = ACVRL1 (human) (UniProt P37023)
ALK (human) = ALK (human) (UniProt Q9UM73)
AURKC (human) = AURKC (human) (UniProt Q9UQB9)
CAMK1D (human) = CAMK1D (human) (UniProt Q8IU85)
CDC42BPA (human) = CDC42BPA (human) (UniProt Q5VT25)
CSF1R (human) = CSF1R (human) (UniProt P07333)
CSNK1A1 (human) = CSNK1A1 (human) (UniProt P48729)
ERBB4 (human) = ERBB4 (human) (UniProt Q15303)
FER (human) = FER (human) (UniProt P16591)
FGFR3 (human) = FGFR3 (human) (UniProt P22607)
HIPK1 (human) = HIPK1 (human) (UniProt Q86Z02)
HIPK3 (human) = HIPK3 (human) (UniProt Q9H422)
KDR (human) = KDR (human) (UniProt P35968)
LIMK1 (human) = LIMK1 (human) (UniProt P53667)
MAP2K2 (human) = MAP2K2 (human) (UniProt P36507)
MAP3K14 (human) = MAP3K14 (human) (UniProt Q99558)
MAP3K3 (human) = MAP3K3 (human) (UniProt Q99759)
MATK (human) = MATK (human) (UniProt P42679)
MELK (human) = MELK (human) (UniProt Q14680)
MYO3B (human) = MYO3B (human) (UniProt Q8WXR4)
NEK7 (human) = NEK7 (human) (UniProt Q8TDX7)
NLK (human) = NLK (human) (UniProt Q9UBE8)
OXSR1 (human) = OXSR1 (human) (UniProt O95747)
PDGFRA (human) = PDGFRA (human) (UniProt P16234)
PHKG1 (human) = PHKG1 (human) (UniProt Q16816)
PIM3 (human) = PIM3 (human) (UniProt Q86V86)
PKN1 (human) = PKN1 (human) (UniProt Q16512)
PRKACG (human) = PRKACG (human) (UniProt P22612)
PRKCH (human) = PRKCH (human) (UniProt P24723)
PRKX (human) = PRKX (human) (UniProt P51817)
PTK2 (human) = PTK2 (human) (UniProt Q05397)
RET (human) = RET (human) (UniProt P07949)
RPS6KA4 KD2 (human) = RPS6KA4 KD2 (human) (UniProt O75676)
RPS6KB2 (human) = RPS6KB2 (human) (UniProt Q9UBS0)
SLK (human) = SLK (human) (UniProt Q9H2G2)
STK24 (human) = STK24 (human) (UniProt Q9Y6E0)
TAOK3 (human) = TAOK3 (human) (UniProt Q9H2K8)
TEC (human) = TEC (human) (UniProt P42680)
TNK2 (human) = TNK2 (human) (UniProt Q07912)
ULK1 (human) = ULK1 (human) (UniProt O75385)
VRK1 (human) = VRK1 (human) (UniProt Q99986)

PRKX (human), sequence (P51817 whole entry, looked up): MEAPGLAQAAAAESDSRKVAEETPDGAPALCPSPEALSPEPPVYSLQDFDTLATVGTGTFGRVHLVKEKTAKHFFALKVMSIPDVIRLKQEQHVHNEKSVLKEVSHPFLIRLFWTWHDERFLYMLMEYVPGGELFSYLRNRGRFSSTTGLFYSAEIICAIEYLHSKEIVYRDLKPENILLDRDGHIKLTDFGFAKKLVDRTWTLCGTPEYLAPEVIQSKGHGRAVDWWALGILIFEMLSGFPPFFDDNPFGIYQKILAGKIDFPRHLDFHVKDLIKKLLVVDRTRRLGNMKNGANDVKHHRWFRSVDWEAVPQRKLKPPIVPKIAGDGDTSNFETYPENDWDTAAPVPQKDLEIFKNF
HIPK1 (human), sequence (Q86Z02 whole entry, looked up): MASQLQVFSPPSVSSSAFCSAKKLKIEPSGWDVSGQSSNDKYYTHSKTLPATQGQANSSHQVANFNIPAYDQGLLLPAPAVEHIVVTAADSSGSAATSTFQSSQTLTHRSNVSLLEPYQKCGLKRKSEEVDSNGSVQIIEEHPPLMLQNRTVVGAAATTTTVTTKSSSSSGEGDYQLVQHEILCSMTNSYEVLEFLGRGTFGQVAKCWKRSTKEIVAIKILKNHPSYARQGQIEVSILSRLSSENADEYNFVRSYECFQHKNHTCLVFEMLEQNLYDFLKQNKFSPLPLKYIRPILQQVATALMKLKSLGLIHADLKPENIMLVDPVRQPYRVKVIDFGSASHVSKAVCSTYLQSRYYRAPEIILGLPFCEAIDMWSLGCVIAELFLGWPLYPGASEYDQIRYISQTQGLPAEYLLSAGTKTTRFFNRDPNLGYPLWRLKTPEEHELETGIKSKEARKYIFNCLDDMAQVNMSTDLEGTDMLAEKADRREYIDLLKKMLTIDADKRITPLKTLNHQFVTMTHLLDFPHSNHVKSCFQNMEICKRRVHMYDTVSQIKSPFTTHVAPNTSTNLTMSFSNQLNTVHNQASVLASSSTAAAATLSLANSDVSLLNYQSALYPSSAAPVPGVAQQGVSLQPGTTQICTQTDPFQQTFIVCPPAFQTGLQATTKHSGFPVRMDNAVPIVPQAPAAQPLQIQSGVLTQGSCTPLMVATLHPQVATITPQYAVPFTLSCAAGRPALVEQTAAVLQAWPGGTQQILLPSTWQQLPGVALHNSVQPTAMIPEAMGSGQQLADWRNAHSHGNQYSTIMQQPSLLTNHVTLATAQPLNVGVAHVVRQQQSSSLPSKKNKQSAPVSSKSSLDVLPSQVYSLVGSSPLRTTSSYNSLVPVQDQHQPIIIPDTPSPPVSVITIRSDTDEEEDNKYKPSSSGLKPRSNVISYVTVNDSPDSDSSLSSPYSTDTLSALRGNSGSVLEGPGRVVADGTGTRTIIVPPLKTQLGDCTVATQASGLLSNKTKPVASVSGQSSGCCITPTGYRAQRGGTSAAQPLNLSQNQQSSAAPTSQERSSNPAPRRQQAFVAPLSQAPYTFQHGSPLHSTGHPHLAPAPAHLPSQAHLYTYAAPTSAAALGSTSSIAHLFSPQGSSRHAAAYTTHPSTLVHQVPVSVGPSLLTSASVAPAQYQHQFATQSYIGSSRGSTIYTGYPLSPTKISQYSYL
PRKACG (human), sequence (P22612 whole entry, looked up): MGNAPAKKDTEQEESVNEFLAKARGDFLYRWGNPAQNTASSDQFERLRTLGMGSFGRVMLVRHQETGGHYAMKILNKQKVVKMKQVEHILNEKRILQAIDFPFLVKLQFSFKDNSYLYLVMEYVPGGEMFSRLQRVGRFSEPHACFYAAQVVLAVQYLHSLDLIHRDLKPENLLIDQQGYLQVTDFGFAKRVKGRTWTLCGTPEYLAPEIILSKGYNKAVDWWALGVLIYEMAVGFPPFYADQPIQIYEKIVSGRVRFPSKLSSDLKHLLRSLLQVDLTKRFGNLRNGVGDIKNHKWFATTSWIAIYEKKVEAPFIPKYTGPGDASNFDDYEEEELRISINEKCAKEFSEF
TAOK3 (human), sequence (Q9H2K8 whole entry, looked up): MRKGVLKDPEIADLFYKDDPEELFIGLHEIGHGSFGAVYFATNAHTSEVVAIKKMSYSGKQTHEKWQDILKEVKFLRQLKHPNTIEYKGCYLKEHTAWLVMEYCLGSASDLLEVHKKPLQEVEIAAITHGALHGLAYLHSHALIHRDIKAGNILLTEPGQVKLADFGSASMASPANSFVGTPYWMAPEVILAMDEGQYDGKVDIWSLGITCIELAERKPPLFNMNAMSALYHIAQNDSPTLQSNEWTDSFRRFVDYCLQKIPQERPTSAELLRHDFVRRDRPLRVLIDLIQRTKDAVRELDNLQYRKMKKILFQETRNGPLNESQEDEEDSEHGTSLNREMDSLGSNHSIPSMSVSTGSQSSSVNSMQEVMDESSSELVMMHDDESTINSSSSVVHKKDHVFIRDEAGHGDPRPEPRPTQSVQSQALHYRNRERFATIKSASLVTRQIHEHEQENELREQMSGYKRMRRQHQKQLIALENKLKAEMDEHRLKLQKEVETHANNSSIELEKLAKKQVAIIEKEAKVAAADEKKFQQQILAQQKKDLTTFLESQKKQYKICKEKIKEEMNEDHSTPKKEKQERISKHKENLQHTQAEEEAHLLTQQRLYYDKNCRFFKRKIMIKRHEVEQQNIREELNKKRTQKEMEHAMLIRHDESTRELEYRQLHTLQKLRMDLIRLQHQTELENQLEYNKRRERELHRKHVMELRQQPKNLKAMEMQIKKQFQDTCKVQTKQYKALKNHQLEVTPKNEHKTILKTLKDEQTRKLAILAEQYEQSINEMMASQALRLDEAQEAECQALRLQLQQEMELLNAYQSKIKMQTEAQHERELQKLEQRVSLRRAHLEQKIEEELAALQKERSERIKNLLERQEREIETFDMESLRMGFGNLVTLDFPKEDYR
OXSR1 (human), sequence (O95747 whole entry, looked up): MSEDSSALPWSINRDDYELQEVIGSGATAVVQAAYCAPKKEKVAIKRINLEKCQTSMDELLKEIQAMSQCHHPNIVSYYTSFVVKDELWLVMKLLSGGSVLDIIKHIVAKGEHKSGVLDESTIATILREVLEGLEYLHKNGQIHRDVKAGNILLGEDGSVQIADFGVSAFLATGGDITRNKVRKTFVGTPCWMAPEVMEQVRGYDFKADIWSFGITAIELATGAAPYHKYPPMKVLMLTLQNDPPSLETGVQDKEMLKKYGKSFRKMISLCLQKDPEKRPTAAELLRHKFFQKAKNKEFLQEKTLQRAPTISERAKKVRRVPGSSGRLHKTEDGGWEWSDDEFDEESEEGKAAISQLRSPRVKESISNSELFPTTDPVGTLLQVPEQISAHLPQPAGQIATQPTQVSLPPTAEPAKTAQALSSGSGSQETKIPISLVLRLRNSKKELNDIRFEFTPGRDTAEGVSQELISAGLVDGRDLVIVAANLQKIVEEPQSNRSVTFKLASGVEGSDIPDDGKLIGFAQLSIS
PTK2 (human), sequence (Q05397 whole entry, looked up): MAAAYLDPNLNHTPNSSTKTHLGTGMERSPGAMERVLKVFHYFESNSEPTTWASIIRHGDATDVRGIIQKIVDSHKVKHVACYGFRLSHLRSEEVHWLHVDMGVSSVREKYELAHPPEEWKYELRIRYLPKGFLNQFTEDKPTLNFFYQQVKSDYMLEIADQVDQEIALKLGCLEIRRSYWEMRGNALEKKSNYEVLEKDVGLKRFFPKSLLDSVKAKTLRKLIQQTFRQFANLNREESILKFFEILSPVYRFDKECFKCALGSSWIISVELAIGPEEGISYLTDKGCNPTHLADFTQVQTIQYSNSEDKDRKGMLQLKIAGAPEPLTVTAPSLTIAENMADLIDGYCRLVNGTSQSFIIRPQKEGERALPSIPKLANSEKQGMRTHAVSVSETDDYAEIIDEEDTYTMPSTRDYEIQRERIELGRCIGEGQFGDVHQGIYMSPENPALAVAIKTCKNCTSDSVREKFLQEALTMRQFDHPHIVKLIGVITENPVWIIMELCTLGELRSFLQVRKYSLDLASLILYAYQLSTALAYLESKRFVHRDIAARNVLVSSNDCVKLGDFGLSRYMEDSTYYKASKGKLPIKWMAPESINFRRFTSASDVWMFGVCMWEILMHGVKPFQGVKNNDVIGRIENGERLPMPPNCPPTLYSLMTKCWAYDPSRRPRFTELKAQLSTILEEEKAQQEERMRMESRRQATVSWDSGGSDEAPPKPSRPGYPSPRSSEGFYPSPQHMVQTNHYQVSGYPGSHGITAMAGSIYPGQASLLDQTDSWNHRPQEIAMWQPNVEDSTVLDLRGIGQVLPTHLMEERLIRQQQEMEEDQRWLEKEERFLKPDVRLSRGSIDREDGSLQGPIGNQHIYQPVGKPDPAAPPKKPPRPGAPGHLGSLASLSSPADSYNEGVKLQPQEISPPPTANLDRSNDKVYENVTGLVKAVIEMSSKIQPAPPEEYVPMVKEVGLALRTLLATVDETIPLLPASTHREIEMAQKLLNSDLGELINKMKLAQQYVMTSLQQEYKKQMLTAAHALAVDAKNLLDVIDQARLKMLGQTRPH
TEC (human), sequence (P42680 whole entry, looked up): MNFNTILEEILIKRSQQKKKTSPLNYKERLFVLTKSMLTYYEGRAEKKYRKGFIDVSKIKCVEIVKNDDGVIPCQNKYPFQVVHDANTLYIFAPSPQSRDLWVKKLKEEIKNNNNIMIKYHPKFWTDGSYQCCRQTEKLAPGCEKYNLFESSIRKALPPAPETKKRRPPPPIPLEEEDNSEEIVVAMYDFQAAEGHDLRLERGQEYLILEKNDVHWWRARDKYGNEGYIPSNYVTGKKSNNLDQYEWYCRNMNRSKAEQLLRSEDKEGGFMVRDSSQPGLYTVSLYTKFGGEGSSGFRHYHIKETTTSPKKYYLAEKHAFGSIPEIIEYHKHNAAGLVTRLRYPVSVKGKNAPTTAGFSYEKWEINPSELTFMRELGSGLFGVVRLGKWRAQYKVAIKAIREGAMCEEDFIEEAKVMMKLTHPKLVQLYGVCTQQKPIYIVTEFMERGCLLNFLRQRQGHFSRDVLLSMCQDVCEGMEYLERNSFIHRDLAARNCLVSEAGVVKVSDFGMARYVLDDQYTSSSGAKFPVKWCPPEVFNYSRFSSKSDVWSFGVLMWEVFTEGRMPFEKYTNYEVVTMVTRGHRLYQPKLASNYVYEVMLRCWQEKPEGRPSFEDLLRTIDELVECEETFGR

SMILES: CNc1cc2c(Nc3cccc(Br)c3)ncnc2cn1
residual activity (ACVR1B (human)): 97.7%
residual activity (ACVRL1 (human)): 90.6%
residual activity (ALK (human)): 82%
residual activity (AURKC (human)): 85.9%
residual activity (CAMK1D (human)): 92.5%
residual activity (CDC42BPA (human)): 95.2%
residual activity (CSF1R (human)): 100%
residual activity (CSNK1A1 (human)): 125%
residual activity (ERBB4 (human)): 58.6%
residual activity (FER (human)): 97.1%
residual activity (FGFR3 (human)): 85.4%
residual activity (HIPK1 (human)): 96.5%
residual activity (HIPK3 (human)): 94.1%
residual activity (KDR (human)): 77.6%
residual activity (LIMK1 (human)): 95.9%
residual activity (MAP2K2 (human)): 90.4%
residual activity (MAP3K14 (human)): 126%
residual activity (MAP3K3 (human)): 73.3%
residual activity (MATK (human)): 88%
residual activity (MELK (human)): 91.6%
residual activity (MYO3B (human)): 91.1%
residual activity (NEK7 (human)): 90.4%
residual activity (NLK (human)): 84.3%
residual activity (OXSR1 (human)): 88.3%
residual activity (PDGFRA (human)): 99%
residual activity (PHKG1 (human)): 91.4%
residual activity (PIM3 (human)): 55.2%
residual activity (PKN1 (human)): 103%
residual activity (PRKACG (human)): 115%
residual activity (PRKCH (human)): 95.7%
residual activity (PRKX (human)): 97.1%
residual activity (PTK2 (human)): 90.2%
residual activity (RET (human)): 78.5%
residual activity (RPS6KA4 KD2 (human)): 109%
residual activity (RPS6KB2 (human)): 99.8%
residual activity (SLK (human)): 63%
residual activity (STK24 (human)): 101%
residual activity (TAOK3 (human)): 94%
residual activity (TEC (human)): 109%
residual activity (TNK2 (human)): 30.3%
residual activity (ULK1 (human)): 98.8%
residual activity (VRK1 (human)): 90.2%

SMILES: COc1cc2ncnc(Nc3cccc(Cl)c3)c2cc1OC
residual activity (ACVR1B (human)): 98%
residual activity (ACVRL1 (human)): 96.4%
residual activity (ALK (human)): 91.5%
residual activity (AURKC (human)): 85.8%
residual activity (CAMK1D (human)): 96.6%
residual activity (CDC42BPA (human)): 82.2%
residual activity (CSF1R (human)): 98.2%
residual activity (CSNK1A1 (human)): 92.5%
residual activity (ERBB4 (human)): 35.5%
residual activity (FER (human)): 77.1%
residual activity (FGFR3 (human)): 88.5%
residual activity (HIPK1 (human)): 98.7%
residual activity (HIPK3 (human)): 98.9%
residual activity (KDR (human)): 74.7%
residual activity (LIMK1 (human)): 72.4%
residual activity (MAP2K2 (human)): 102%
residual activity (MAP3K14 (human)): 107%
residual activity (MAP3K3 (human)): 88.3%
residual activity (MATK (human)): 103%
residual activity (MELK (human)): 81.8%
residual activity (MYO3B (human)): 81.2%
residual activity (NEK7 (human)): 99%
residual activity (NLK (human)): 83.1%
residual activity (OXSR1 (human)): 92%
residual activity (PDGFRA (human)): 93.3%
residual activity (PHKG1 (human)): 88.9%
residual activity (PIM3 (human)): 99.4%
residual activity (PKN1 (human)): 96.8%
residual activity (PRKACG (human)): 87.9%
residual activity (PRKCH (human)): 104%
residual activity (PRKX (human)): 92.5%
residual activity (PTK2 (human)): 95.1%
residual activity (RET (human)): 35.3%
residual activity (RPS6KA4 KD2 (human)): 94.5%
residual activity (RPS6KB2 (human)): 105%
residual activity (SLK (human)): 64.6%
residual activity (STK24 (human)): 96.8%
residual activity (TAOK3 (human)): 90.4%
residual activity (TEC (human)): 126%
residual activity (TNK2 (human)): 28.6%
residual activity (ULK1 (human)): 84.7%
residual activity (VRK1 (human)): 105%

residual activity (ACVR1B (human)): 102%
residual activity (ACVRL1 (human)): 103%
residual activity (ALK (human)): 77.7%
residual activity (AURKC (human)): 37.9%
residual activity (CAMK1D (human)): 138%
residual activity (CDC42BPA (human)): 105%
residual activity (CSF1R (human)): 64.9%
residual activity (CSNK1A1 (human)): 79.2%
residual activity (ERBB4 (human)): 105%
residual activity (FER (human)): 81%
residual activity (FGFR3 (human)): 74.1%
residual activity (HIPK1 (human)): 104%
residual activity (HIPK3 (human)): 103%
residual activity (KDR (human)): 79.4%
residual activity (LIMK1 (human)): 87.9%
residual activity (MAP2K2 (human)): 99.5%
residual activity (MAP3K14 (human)): 109%
residual activity (MAP3K3 (human)): 63.6%
residual activity (MATK (human)): 100%
residual activity (MELK (human)): 78.9%
residual activity (MYO3B (human)): 72.5%
residual activity (NEK7 (human)): 90.3%
residual activity (NLK (human)): 106%
residual activity (OXSR1 (human)): 116%
residual activity (PDGFRA (human)): 72.8%
residual activity (PHKG1 (human)): 45.2%
residual activity (PIM3 (human)): 106%
residual activity (PKN1 (human)): 86.4%
residual activity (PRKACG (human)): 111%
residual activity (PRKCH (human)): 88.7%
residual activity (PRKX (human)): 104%
residual activity (PTK2 (human)): 96.8%
residual activity (RET (human)): 23%
residual activity (RPS6KA4 KD2 (human)): 109%
residual activity (RPS6KB2 (human)): 98.4%
residual activity (SLK (human)): 13.6%
residual activity (STK24 (human)): 49.6%
residual activity (TAOK3 (human)): 61.5%
residual activity (TEC (human)): 86.7%
residual activity (TNK2 (human)): 65.4%
residual activity (ULK1 (human)): 5.17%
residual activity (VRK1 (human)): 87.3%
SMILES: Cc1[nH]c(/C=C2\C(=O)Nc3ccc(S(=O)(=O)N(C)c4cccc(Cl)c4)cc32)c(C)c1C(=O)N1CCN(C)CC1

SMILES: Nc1ncnc2[nH]nc(Nc3ccc(F)cc3)c12
residual activity (ACVR1B (human)): 104%
residual activity (ACVRL1 (human)): 108%
residual activity (ALK (human)): 88.9%
residual activity (AURKC (human)): 96%
residual activity (CAMK1D (human)): 130%
residual activity (CDC42BPA (human)): 103%
residual activity (CSF1R (human)): 101%
residual activity (CSNK1A1 (human)): 90.3%
residual activity (ERBB4 (human)): 121%
residual activity (FER (human)): 100%
residual activity (FGFR3 (human)): 101%
residual activity (HIPK1 (human)): 106%
residual activity (HIPK3 (human)): 101%
residual activity (KDR (human)): 104%
residual activity (LIMK1 (human)): 95.2%
residual activity (MAP2K2 (human)): 90%
residual activity (MAP3K14 (human)): 111%
residual activity (MAP3K3 (human)): 87.6%
residual activity (MATK (human)): 95.6%
residual activity (MELK (human)): 97.7%
residual activity (MYO3B (human)): 87.9%
residual activity (NEK7 (human)): 97%
residual activity (NLK (human)): 95.4%
residual activity (OXSR1 (human)): 110%
residual activity (PDGFRA (human)): 101%
residual activity (PHKG1 (human)): 87.5%
residual activity (PIM3 (human)): 95%
residual activity (PKN1 (human)): 102%
residual activity (PRKACG (human)): 96.2%
residual activity (PRKCH (human)): 84.7%
residual activity (PRKX (human)): 90.4%
residual activity (PTK2 (human)): 103%
residual activity (RET (human)): 78.1%
residual activity (RPS6KA4 KD2 (human)): 114%
residual activity (RPS6KB2 (human)): 96.8%
residual activity (SLK (human)): 99.5%
residual activity (STK24 (human)): 81.6%
residual activity (TAOK3 (human)): 92.4%
residual activity (TEC (human)): 86%
residual activity (TNK2 (human)): 61.5%
residual activity (ULK1 (human)): 95.6%
residual activity (VRK1 (human)): 82.9%
